Results: patent publication US6737383B1, “Herbicidal oxadiazolidines” (priority 1999, dated 2004)

Assays:
blackgrass = assay: Test B pre/postemergence blackgrass; assay type: in vivo, Alopecurus myosuroides
Method in brief: (§1)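 Test chemicals in a non-phytotoxic solvent mixture with surfactant were sprayed preemergence onto planted seeds and postemergence onto plants 2 to 18 cm tall (1- to 4-leaf stage). After twelve to sixteen days in a greenhouse, injury was visually rated against untreated controls from 0 (no effect) to 10 (complete control).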

velvetleaf = assay: Test B pre/postemergence velvetleaf; assay type: in vivo, Abutilon theophrasti
Method in brief: as §1

soybean = assay: Test B pre/postemergence soybean; assay type: in vivo, Glycine max
Method in brief: as §1

bedstraw = assay: Test B pre/postemergence bedstraw; assay type: in vivo, Galium aparine
Method in brief: as §1

[1] = Postemergence, Rate 62 g/ha, scale of 0 to 10, 0 is no effect, 10 is complete control
[2] = Postemergence, Rate 125 g/ha, scale of 0 to 10 where 0 is no effect and 10 is complete control
[3] = Postemergence, Rate 250 g/ha, scale of 0 to 10, 0 is no effect, 10 is complete control
[4] = Postemergence, Rate 500 g/ha, scale of 0 to 10 where 0 is no effect and 10 is complete control
[5] = Preemergence, Rate 62 g/ha, scale 0 to 10 (0 no effect, 10 complete control)
[6] = Preemergence, Rate 125 g/ha, scale of 0 to 10 where 0 is no effect and 10 is complete control
[7] = Preemergence, Rate 500 g/ha, scale of 0 to 10 where 0 is no effect and 10 is complete control
[8] = Postemergence, Rate 62 g/ha, scale 0 to 10, 0 is no effect, 10 is complete control
[9] = Postemergence, Rate 250 g/ha, scale 0 to 10, 0 no effect, 10 complete control
[10] = Preemergence, Rate 62 g/ha, scale 0 to 10, 0 is no effect, 10 is complete control
[11] = Preemergence, Rate 125 g/ha, scale 0 to 10 (0 no effect, 10 complete control)
[12] = Preemergence, Rate 250 g/ha, scale of 0 to 10 where 0 is no effect and 10 is complete control
[13] = Preemergence, Rate 500 g/ha, scale 0 (no effect) to 10 (complete control)
[14] = Rate 125 g/ha, Postemergence, scale 0 to 10, 0 no effect, 10 complete control
[15] = Rate 500 g/ha, Postemergence, scale 0 to 10, 0 no effect, 10 complete control
[16] = Preemergence, Rate 62 g/ha, scale of 0 to 10 where 0 is no effect and 10 is complete control
[17] = Rate 62 g/ha, Postemergence, scale of 0 to 10 where 0 is no effect and 10 is complete control
[18] = Rate 125 g/ha, Postemergence, scale 0 to 10
[19] = Rate 125 g/ha, Preemergence, scale of 0 to 10 where 0 is no effect and 10 is complete control
[20] = Postemergence, Rate 125 g/ha, scale 0 to 10, 0 is no effect, 10 is complete control
[21] = Postemergence, Rate 500 g/ha, scale 0 to 10, 0 is no effect, 10 is complete control
[22] = Preemergence, Rate 125 g/ha, scale 0 to 10, 0 is no effect, 10 is complete control
[23] = Rate 250 g/ha, Postemergence, scale of 0 to 10 where 0 is no effect and 10 is complete control
[24] = Preemergence, Rate 31 g/ha, visual rating, scale 0 to 10 (0 no effect, 10 complete control)
[25] = Rate 31 g/ha, Postemergence, scale 0 to 10

## CC(C)N(C(=O)n1oc(=O)n(CC(=O)C(F)(F)F)c1=O)c1ccc(F)cc1F [Compound 598]
blackgrass; [1]
  Blackgrass plant response rating: 0
blackgrass; [2]
  Plant response rating, Blackgrass: 0
blackgrass; [3]
  Blackgrass plant response rating: 0
blackgrass; [4]
  Plant response rating, Blackgrass: 0
blackgrass; [5]
  Blackgrass plant response rating: 0
blackgrass; [6]
  Blackgrass plant response rating: 0
blackgrass; Preemergence, Rate 250 g/ha
  Blackgrass plant response rating (0 to 10 scale): 0
blackgrass; [7]
  Blackgrass plant response rating: 0
velvetleaf; [2]
  Plant response rating, Velvetleaf: 0
velvetleaf; [3]
  Velvetleaf plant response rating: 0
velvetleaf; [4]
  Plant response rating, Velvetleaf: 0
velvetleaf; [5]
  Velvetleaf plant response rating: 0
velvetleaf; [6]
  Velvetleaf plant response rating: 0
velvetleaf; [7]
  Plant response rating, Velvetleaf: 0
soybean; [2]
  Plant response rating, Soybean: 0
soybean; [3]
  Soybean plant response rating: 0
soybean; [4]
  Plant response rating, Soybean: 0
soybean; [5]
  Soybean plant response rating: 0
soybean; [6]
  Soybean plant response rating: 0
soybean; [7]
  Plant response rating, Soybean: 0
bedstraw; [1]
  Bedstraw plant response rating: 0
bedstraw; [2]
  Plant response rating, Bedstraw: 0
bedstraw; [5]
  Bedstraw plant response rating: 0
bedstraw; [6]
  Bedstraw plant response rating: 0
bedstraw; Preemergence, Rate 250 g/ha
  Bedstraw plant response rating (0 to 10 scale): 0
bedstraw; [7]
  Bedstraw plant response rating: 0

## Cc1ccccc1-n1c(=O)on(C(=O)N(c2ccc(F)c(F)c2)C(C)C)c1=O [Compound 48]
blackgrass; [8]
  Blackgrass plant response rating: 0
blackgrass; [9]
  Blackgrass plant response rating: 0
blackgrass; [10]
  Plant response rating, Blackgrass: 0
blackgrass; [11]
  Plant response rating, Blackgrass: 0
blackgrass; [12]
  Plant response rating, Blackgrass: 2
blackgrass; [13]
  Blackgrass plant response rating: 2
blackgrass; [14]
  Blackgrass plant response rating: 0
blackgrass; [15]
  Blackgrass plant response rating: 0
velvetleaf; [8]
  Velvetleaf plant response rating: 0
velvetleaf; [9]
  Velvetleaf plant response rating: 0
velvetleaf; [10]
  Plant response rating, Velvetleaf: 0
velvetleaf; [11]
  Plant response rating, Velvetleaf: 0
velvetleaf; [12]
  Plant response rating, Velvetleaf: 0
velvetleaf; [13]
  Velvetleaf plant response rating: 0
velvetleaf; [14]
  Velvetleaf plant response rating: 0
velvetleaf; [15]
  Velvetleaf plant response rating: 0
soybean; [8]
  Soybean plant response rating: 1
soybean; [9]
  Soybean plant response rating: 1
soybean; [10]
  Plant response rating, Soybean: 0
soybean; [11]
  Plant response rating, Soybean: 0
soybean; [12]
  Plant response rating, Soybean: 0
soybean; [13]
  Soybean plant response rating: 0
soybean; [14]
  Soybean plant response rating: 1
soybean; [15]
  Soybean plant response rating: 1
bedstraw; [8]
  Bedstraw plant response rating: 0
bedstraw; [9]
  Bedstraw plant response rating: 0
bedstraw; [10]
  Plant response rating, Bedstraw: 0
bedstraw; [11]
  Plant response rating, Bedstraw: 0
bedstraw; [12]
  Plant response rating, Bedstraw: 0
bedstraw; [13]
  Bedstraw plant response rating: 0
bedstraw; [14]
  Bedstraw plant response rating: 0

## CC(C)N(C(=O)n1oc(=O)n(-c2cccnc2)c1=O)c1ccccc1 [Compound 235]
blackgrass; [16]
  Blackgrass plant response rating: 0
blackgrass; [12]
  Blackgrass plant response rating: 0
blackgrass; [7]
  Plant response rating, Blackgrass: 0
blackgrass; [17]
  Blackgrass plant response rating: 0
blackgrass; [18]
  Blackgrass plant response rating: 0
blackgrass; [19]
  Blackgrass plant response rating: 0
blackgrass; Rate 250 g/ha, Postemergence
  Plant response rating (0 to 10; 0 is no effect, 10 is complete control), Blackgrass: 0
blackgrass; [15]
  Blackgrass plant response rating: 0
velvetleaf; [16]
  Velvetleaf plant response rating: 0
velvetleaf; [12]
  Velvetleaf plant response rating: 0
velvetleaf; [7]
  Plant response rating, Velvetleaf: 0
velvetleaf; [17]
  Velvetleaf plant response rating: 0
velvetleaf; [18]
  Velvetleaf plant response rating: 0
velvetleaf; [19]
  Velvetleaf plant response rating: 0
velvetleaf; Rate 250 g/ha, Postemergence
  Plant response rating (0 to 10; 0 is no effect, 10 is complete control), Velvetleaf: 0
velvetleaf; [15]
  Velvetleaf plant response rating: 0
soybean; [16]
  Soybean plant response rating: 0
soybean; [12]
  Soybean plant response rating: 0
soybean; [7]
  Plant response rating, Soybean: 0
soybean; [17]
  Soybean plant response rating: 0
soybean; [18]
  Soybean plant response rating: 0
soybean; [19]
  Soybean plant response rating: 0
soybean; Rate 250 g/ha, Postemergence
  Plant response rating (0 to 10; 0 is no effect, 10 is complete control), Soybean: 0
soybean; [15]
  Soybean plant response rating: 0
bedstraw; [16]
  Bedstraw plant response rating: 0
bedstraw; [12]
  Bedstraw plant response rating: 0
bedstraw; [7]
  Plant response rating, Bedstraw: 0
bedstraw; [17]
  Bedstraw plant response rating: 0
bedstraw; [18]
  Bedstraw plant response rating: 0
bedstraw; [19]
  Bedstraw plant response rating: 0
bedstraw; Rate 250 g/ha, Postemergence
  Plant response rating (0 to 10; 0 is no effect, 10 is complete control), Bedstraw: 0
bedstraw; [15]
  Bedstraw plant response rating: 0

## CCC=CCn1c(=O)on(C(=O)N(c2ccc(Cl)cc2)C(C)C)c1=O [Compound 552]
blackgrass; [1]
  Blackgrass plant response rating: 0
blackgrass; [20]
  Blackgrass plant response rating: 0
blackgrass; [21]
  Plant response rating, Blackgrass: 7
blackgrass; [5]
  Blackgrass plant response rating: 0
blackgrass; [22]
  Blackgrass plant response rating: 0
blackgrass; Preemergence, Rate 250 g/ha
  Blackgrass plant response rating (0 to 10 scale): 0
blackgrass; [7]
  Blackgrass plant response rating: 8
blackgrass; [23]
  Plant response rating, Blackgrass: 0
velvetleaf; [1]
  Velvetleaf plant response rating: 0
velvetleaf; [21]
  Plant response rating, Velvetleaf: 3
velvetleaf; [5]
  Velvetleaf plant response rating: 0
velvetleaf; [22]
  Velvetleaf plant response rating: 0
velvetleaf; Preemergence, Rate 250 g/ha
  Velvetleaf plant response rating (0 to 10 scale): 0
velvetleaf; [7]
  Velvetleaf plant response rating: 0
velvetleaf; [23]
  Plant response rating, Velvetleaf: 2
soybean; [1]
  Soybean plant response rating: 2
soybean; [21]
  Plant response rating, Soybean: 3
soybean; [5]
  Soybean plant response rating: 0
soybean; [22]
  Soybean plant response rating: 0
soybean; Preemergence, Rate 250 g/ha
  Soybean plant response rating (0 to 10 scale): 0
soybean; [7]
  Soybean plant response rating: 0
soybean; [23]
  Plant response rating, Soybean: 3
bedstraw; [1]
  Bedstraw plant response rating: 2
bedstraw; [20]
  Bedstraw plant response rating: 5
bedstraw; [21]
  Plant response rating, Bedstraw: 10
bedstraw; [5]
  Bedstraw plant response rating: 0
bedstraw; [22]
  Bedstraw plant response rating: 0
bedstraw; Preemergence, Rate 250 g/ha
  Bedstraw plant response rating (0 to 10 scale): 0
bedstraw; [7]
  Bedstraw plant response rating: 8
bedstraw; [23]
  Plant response rating, Bedstraw: 10

## CCN(C(=O)n1oc(=O)n(-c2ccccc2OC)c1=O)C1CCCCC1 [Compound 29]
blackgrass; [8]
  Blackgrass plant response rating: 0
blackgrass; [9]
  Blackgrass plant response rating: 0
blackgrass; [24]
  Blackgrass plant response rating: 0
blackgrass; [10]
  Plant response rating, Blackgrass: 0
blackgrass; [11]
  Plant response rating, Blackgrass: 0
blackgrass; [12]
  Plant response rating, Blackgrass: 2
blackgrass; [25]
  Blackgrass plant response rating: 0
blackgrass; [14]
  Blackgrass plant response rating: 0
velvetleaf; [8]
  Velvetleaf plant response rating: 0
velvetleaf; [9]
  Velvetleaf plant response rating: 0
velvetleaf; [24]
  Velvetleaf plant response rating: 0
velvetleaf; [10]
  Plant response rating, Velvetleaf: 0
velvetleaf; [11]
  Plant response rating, Velvetleaf: 0
velvetleaf; [12]
  Plant response rating, Velvetleaf: 0
velvetleaf; [14]
  Velvetleaf plant response rating: 0
soybean; [8]
  Soybean plant response rating: 2
soybean; [9]
  Soybean plant response rating: 2
soybean; [24]
  Soybean plant response rating: 0
soybean; [10]
  Plant response rating, Soybean: 0
soybean; [11]
  Plant response rating, Soybean: 0
soybean; [12]
  Plant response rating, Soybean: 0
soybean; [14]
  Soybean plant response rating: 2
bedstraw; [8]
  Bedstraw plant response rating: 0
bedstraw; [9]
  Bedstraw plant response rating: 0
bedstraw; [24]
  Bedstraw plant response rating: 0
bedstraw; [10]
  Plant response rating, Bedstraw: 0
bedstraw; [11]
  Plant response rating, Bedstraw: 0
bedstraw; [12]
  Plant response rating, Bedstraw: 0
bedstraw; [25]
  Bedstraw plant response rating: 0
bedstraw; [14]
  Bedstraw plant response rating: 0

## CC(C)N(C(=O)n1oc(=O)n(-c2cccnc2)c1=O)c1ccc(F)cc1 [Compound 234]
blackgrass; [16]
  Blackgrass plant response rating: 0
blackgrass; [12]
  Blackgrass plant response rating: 0
blackgrass; [7]
  Plant response rating, Blackgrass: 0
blackgrass; [17]
  Blackgrass plant response rating: 0
blackgrass; [18]
  Blackgrass plant response rating: 0
blackgrass; [19]
  Blackgrass plant response rating: 0
blackgrass; Rate 250 g/ha, Postemergence
  Plant response rating (0 to 10; 0 is no effect, 10 is complete control), Blackgrass: 0
blackgrass; [15]
  Blackgrass plant response rating: 0
velvetleaf; [16]
  Velvetleaf plant response rating: 0
velvetleaf; [12]
  Velvetleaf plant response rating: 0
velvetleaf; [7]
  Plant response rating, Velvetleaf: 0
velvetleaf; [17]
  Velvetleaf plant response rating: 0
velvetleaf; [18]
  Velvetleaf plant response rating: 0
velvetleaf; [19]
  Velvetleaf plant response rating: 0
velvetleaf; Rate 250 g/ha, Postemergence
  Plant response rating (0 to 10; 0 is no effect, 10 is complete control), Velvetleaf: 0
velvetleaf; [15]
  Velvetleaf plant response rating: 0
soybean; [16]
  Soybean plant response rating: 0
soybean; [12]
  Soybean plant response rating: 0
soybean; [7]
  Plant response rating, Soybean: 0
soybean; [17]
  Soybean plant response rating: 0
soybean; [18]
  Soybean plant response rating: 0
soybean; [19]
  Soybean plant response rating: 0
soybean; Rate 250 g/ha, Postemergence
  Plant response rating (0 to 10; 0 is no effect, 10 is complete control), Soybean: 0
soybean; [15]
  Soybean plant response rating: 1
bedstraw; [16]
  Bedstraw plant response rating: 0
bedstraw; [12]
  Bedstraw plant response rating: 0
bedstraw; [7]
  Plant response rating, Bedstraw: 0
bedstraw; [17]
  Bedstraw plant response rating: 0
bedstraw; [18]
  Bedstraw plant response rating: 0
bedstraw; [19]
  Bedstraw plant response rating: 0
bedstraw; Rate 250 g/ha, Postemergence
  Plant response rating (0 to 10; 0 is no effect, 10 is complete control), Bedstraw: 0
bedstraw; [15]
  Bedstraw plant response rating: 0
